Laboratory results published in patent US20250223268A1, “4-Methylsulfonylbenzamide Compound, Preparation Method, Herbicidal Composition And Use” (Jiangsu Flag Chemical Industry Co., Ltd., priority 2022, published 2025).

Assays:
Assay in all cases: Greenhouse herbicidal activity assay, post-emergence
Type in all cases: in vivo
Conditions in all cases: Post-emergence test, rate 150 g a.i./hm^2, grade by fresh weight inhibition rate
Cyperus iria = system: Cyperus iria
In short: (§1)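 Foliar spray at 3-6 leaves; pot-grown in nutrient soil in growth chamber; air-dried post-spray. Read-out at 14-21 d: fresh weight inhibition, graded A (≥80% to 100%) down to E (<20%); NT = not tested.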

Digitaria sanguinalis = system: Digitaria sanguinalis
In short: as §1

Echinochloa crusgalli = system: Echinochloa crusgalli
In short: as §1

Leptochloa chinensis = system: Leptochloa chinensis
In short: as §1

Eclipta prostrata = system: Eclipta prostrata
In short: as §1

Structure (SMILES): Cc1nnc(NC(=O)c2ccc(S(C)(=O)=O)c(SCC(C)C)c2Cl)o1 [Compound 3-27]
- Control efficacy grade, Cyperus iria (Cyperus iria): A (Fresh weight inhibition rate≥80% to 100%)
- Control efficacy grade, Digitaria sanguinalis (Digitaria sanguinalis): A (Fresh weight inhibition rate≥80% to 100%)
- Control efficacy grade, Echinochloa crusgalli (Echinochloa crusgalli): A (Fresh weight inhibition rate≥80% to 100%)
- Control efficacy grade, Leptochloa chinensis (Leptochloa chinensis): A (Fresh weight inhibition rate≥80% to 100%)
- Control efficacy grade, Eclipta prostrata (Eclipta prostrata): A (Fresh weight inhibition rate≥80% to 100%)

Structure (SMILES): CCc1nnc(NC(=O)c2ccc(S(C)(=O)=O)c([S+]([O-])CC3CC3)c2Cl)o1 (racemic) [Compound 3-415]
- Control efficacy grade, Cyperus iria (Cyperus iria): A (Fresh weight inhibition rate≥80% to 100%)
- Control efficacy grade, Digitaria sanguinalis (Digitaria sanguinalis): A (Fresh weight inhibition rate≥80% to 100%)
- Control efficacy grade, Echinochloa crusgalli (Echinochloa crusgalli): A (Fresh weight inhibition rate≥80% to 100%)
- Control efficacy grade, Leptochloa chinensis (Leptochloa chinensis): A (Fresh weight inhibition rate≥80% to 100%)
- Control efficacy grade, Eclipta prostrata (Eclipta prostrata): A (Fresh weight inhibition rate≥80% to 100%)

Structure (SMILES): CCCSc1c(S(C)(=O)=O)ccc(C(=O)Nc2ncnn2C)c1Cl [Compound 2-1]
- Control efficacy grade, Cyperus iria (Cyperus iria): A (Fresh weight inhibition rate≥80% to 100%)
- Control efficacy grade, Digitaria sanguinalis (Digitaria sanguinalis): A (Fresh weight inhibition rate≥80% to 100%)
- Control efficacy grade, Echinochloa crusgalli (Echinochloa crusgalli): A (Fresh weight inhibition rate≥80% to 100%)
- Control efficacy grade, Leptochloa chinensis (Leptochloa chinensis): A (Fresh weight inhibition rate≥80% to 100%)
- Control efficacy grade, Eclipta prostrata (Eclipta prostrata): A (Fresh weight inhibition rate≥80% to 100%)

Structure (SMILES): CCCC[S+]([O-])c1c(S(C)(=O)=O)ccc(C(=O)Nc2nnc(C)o2)c1Cl (racemic) [Compound 3-12]
- Control efficacy grade, Cyperus iria (Cyperus iria): A (Fresh weight inhibition rate≥80% to 100%)
- Control efficacy grade, Digitaria sanguinalis (Digitaria sanguinalis): A (Fresh weight inhibition rate≥80% to 100%)
- Control efficacy grade, Echinochloa crusgalli (Echinochloa crusgalli): A (Fresh weight inhibition rate≥80% to 100%)
- Control efficacy grade, Leptochloa chinensis (Leptochloa chinensis): A (Fresh weight inhibition rate≥80% to 100%)
- Control efficacy grade, Eclipta prostrata (Eclipta prostrata): A (Fresh weight inhibition rate≥80% to 100%)

Structure (SMILES): CS(=O)(=O)c1ccc(C(=O)Nc2nnco2)c(Cl)c1SC1CC1 [Compound 3-303]
- Control efficacy grade, Cyperus iria (Cyperus iria): B (Fresh weight inhibition rate≥260% to <80%)
- Control efficacy grade, Digitaria sanguinalis (Digitaria sanguinalis): A (Fresh weight inhibition rate≥80% to 100%)
- Control efficacy grade, Echinochloa crusgalli (Echinochloa crusgalli): A (Fresh weight inhibition rate≥80% to 100%)
- Control efficacy grade, Leptochloa chinensis (Leptochloa chinensis): A (Fresh weight inhibition rate≥80% to 100%)
- Control efficacy grade, Eclipta prostrata (Eclipta prostrata): A (Fresh weight inhibition rate≥80% to 100%)

Structure (SMILES): Cc1nnc(NC(=O)c2ccc(S(C)(=O)=O)c([S+]([O-])CC#N)c2Cl)o1 (racemic) [Compound 3-193]
- Control efficacy grade, Cyperus iria (Cyperus iria): A (Fresh weight inhibition rate≥80% to 100%)
- Control efficacy grade, Digitaria sanguinalis (Digitaria sanguinalis): B (Fresh weight inhibition rate≥260% to <80%)
- Control efficacy grade, Echinochloa crusgalli (Echinochloa crusgalli): A (Fresh weight inhibition rate≥80% to 100%)
- Control efficacy grade, Leptochloa chinensis (Leptochloa chinensis): A (Fresh weight inhibition rate≥80% to 100%)
- Control efficacy grade, Eclipta prostrata (Eclipta prostrata): A (Fresh weight inhibition rate≥80% to 100%)

Structure (SMILES): Cn1nnnc1NC(=O)c1ccc(S(C)(=O)=O)c([S+]([O-])CC2CC2)c1Cl (racemic) [Compound 1-28]
- Control efficacy grade, Cyperus iria (Cyperus iria): A (Fresh weight inhibition rate≥80% to 100%)
- Control efficacy grade, Digitaria sanguinalis (Digitaria sanguinalis): A (Fresh weight inhibition rate≥80% to 100%)
- Control efficacy grade, Echinochloa crusgalli (Echinochloa crusgalli): A (Fresh weight inhibition rate≥80% to 100%)
- Control efficacy grade, Leptochloa chinensis (Leptochloa chinensis): A (Fresh weight inhibition rate≥80% to 100%)
- Control efficacy grade, Eclipta prostrata (Eclipta prostrata): A (Fresh weight inhibition rate≥80% to 100%)

Structure (SMILES): Cc1nonc1NC(=O)c1ccc(S(C)(=O)=O)c([S+]([O-])C2CCC2)c1Cl (racemic) [Compound 4-43]
- Control efficacy grade, Cyperus iria (Cyperus iria): A (Fresh weight inhibition rate≥80% to 100%)
- Control efficacy grade, Digitaria sanguinalis (Digitaria sanguinalis): A (Fresh weight inhibition rate≥80% to 100%)
- Control efficacy grade, Echinochloa crusgalli (Echinochloa crusgalli): A (Fresh weight inhibition rate≥80% to 100%)
- Control efficacy grade, Leptochloa chinensis (Leptochloa chinensis): A (Fresh weight inhibition rate≥80% to 100%)
- Control efficacy grade, Eclipta prostrata (Eclipta prostrata): A (Fresh weight inhibition rate≥80% to 100%)

Structure (SMILES): Cn1nnnc1NC(=O)c1ccc(S(C)(=O)=O)c(SCC(F)(F)F)c1Cl [Compound 1-52]
- Control efficacy grade, Cyperus iria (Cyperus iria): A (Fresh weight inhibition rate≥80% to 100%)
- Control efficacy grade, Digitaria sanguinalis (Digitaria sanguinalis): A (Fresh weight inhibition rate≥80% to 100%)
- Control efficacy grade, Echinochloa crusgalli (Echinochloa crusgalli): A (Fresh weight inhibition rate≥80% to 100%)
- Control efficacy grade, Leptochloa chinensis (Leptochloa chinensis): A (Fresh weight inhibition rate≥80% to 100%)
- Control efficacy grade, Eclipta prostrata (Eclipta prostrata): A (Fresh weight inhibition rate≥80% to 100%)

Structure (SMILES): CCC(C)[S+]([O-])c1c(S(C)(=O)=O)ccc(C(=O)Nc2nnc(C)o2)c1Cl (mixture of isomers) [Compound 3-19]
- Control efficacy grade, Cyperus iria (Cyperus iria): A (Fresh weight inhibition rate≥80% to 100%)
- Control efficacy grade, Digitaria sanguinalis (Digitaria sanguinalis): A (Fresh weight inhibition rate≥80% to 100%)
- Control efficacy grade, Echinochloa crusgalli (Echinochloa crusgalli): A (Fresh weight inhibition rate≥80% to 100%)
- Control efficacy grade, Leptochloa chinensis (Leptochloa chinensis): A (Fresh weight inhibition rate≥80% to 100%)
- Control efficacy grade, Eclipta prostrata (Eclipta prostrata): A (Fresh weight inhibition rate≥80% to 100%)

Structure (SMILES): CCc1nnc(NC(=O)c2ccc(S(C)(=O)=O)c([S+]([O-])CC(F)(F)F)c2Cl)o1 (racemic) [Compound 3-440]
- Control efficacy grade, Cyperus iria (Cyperus iria): A (Fresh weight inhibition rate≥80% to 100%)
- Control efficacy grade, Digitaria sanguinalis (Digitaria sanguinalis): A (Fresh weight inhibition rate≥80% to 100%)
- Control efficacy grade, Echinochloa crusgalli (Echinochloa crusgalli): A (Fresh weight inhibition rate≥80% to 100%)
- Control efficacy grade, Leptochloa chinensis (Leptochloa chinensis): A (Fresh weight inhibition rate≥80% to 100%)
- Control efficacy grade, Eclipta prostrata (Eclipta prostrata): A (Fresh weight inhibition rate≥80% to 100%)

Structure (SMILES): CCc1nnc(NC(=O)c2ccc(S(C)(=O)=O)c([S+]([O-])C(C)C)c2Cl)o1 (stereo not drawn) [Compound 3-389, 2-chloro-N-(5-ethyl-1,3,4-oxadiazol-2-yl)-3-(isopropylsulfinyl)-4-(methylsulfonyl)benzamide]
- pest or weed control at 150 g/ha (Cyperus iria; Cyperus iria, read-out: Control efficacy grade, Cyperus iria): 80 to 100%
- pest or weed control at 150 g/ha (Digitaria sanguinalis; Digitaria sanguinalis, read-out: Control efficacy grade, Digitaria sanguinalis): 80 to 100%
- pest or weed control at 150 g/ha (Echinochloa crusgalli; Echinochloa crus-galli, read-out: Control efficacy grade, Echinochloa crusgalli): 80 to 100%
- pest or weed control at 150 g/ha (Leptochloa chinensis; Dinebra chinensis, read-out: Control efficacy grade, Leptochloa chinensis): 80 to 100%
- pest or weed control at 150 g/ha (Eclipta prostrata; Eclipta prostrata, read-out: Control efficacy grade, Eclipta prostrata): 80 to 100%

Structure (SMILES): C=CC[S+]([O-])c1c(S(C)(=O)=O)ccc(C(=O)Nc2nnc(C)o2)c1Cl (racemic) [Compound 3-113]
- Control efficacy grade, Cyperus iria (Cyperus iria): A (Fresh weight inhibition rate≥80% to 100%)
- Control efficacy grade, Digitaria sanguinalis (Digitaria sanguinalis): A (Fresh weight inhibition rate≥80% to 100%)
- Control efficacy grade, Echinochloa crusgalli (Echinochloa crusgalli): A (Fresh weight inhibition rate≥80% to 100%)
- Control efficacy grade, Leptochloa chinensis (Leptochloa chinensis): A (Fresh weight inhibition rate≥80% to 100%)
- Control efficacy grade, Eclipta prostrata (Eclipta prostrata): A (Fresh weight inhibition rate≥80% to 100%)

Structure (SMILES): Cn1ncnc1NC(=O)c1ccc(S(C)(=O)=O)c(SC2CC2)c1Cl [Compound 2-32]
- Control efficacy grade, Digitaria sanguinalis (Digitaria sanguinalis): A (Fresh weight inhibition rate≥80% to 100%)
- Control efficacy grade, Echinochloa crusgalli (Echinochloa crusgalli): A (Fresh weight inhibition rate≥80% to 100%)
- Control efficacy grade, Leptochloa chinensis (Leptochloa chinensis): A (Fresh weight inhibition rate≥80% to 100%)
- Control efficacy grade, Eclipta prostrata (Eclipta prostrata): A (Fresh weight inhibition rate≥80% to 100%)

Structure (SMILES): Cc1nonc1NC(=O)c1ccc(S(C)(=O)=O)c([S+]([O-])C(C)C)c1Cl (racemic) [Compound 4-7]
- Control efficacy grade, Digitaria sanguinalis (Digitaria sanguinalis): B (Fresh weight inhibition rate≥260% to <80%)
- Control efficacy grade, Echinochloa crusgalli (Echinochloa crusgalli): A (Fresh weight inhibition rate≥80% to 100%)
- Control efficacy grade, Leptochloa chinensis (Leptochloa chinensis): A (Fresh weight inhibition rate≥80% to 100%)
- Control efficacy grade, Eclipta prostrata (Eclipta prostrata): A (Fresh weight inhibition rate≥80% to 100%)

Structure (SMILES): CCC(C)[S+]([O-])c1c(S(C)(=O)=O)ccc(C(=O)Nc2nnnn2C)c1Cl (mixture of isomers) [Compound 1-19]
- Control efficacy grade, Digitaria sanguinalis (Digitaria sanguinalis): A (Fresh weight inhibition rate≥80% to 100%)
- Control efficacy grade, Echinochloa crusgalli (Echinochloa crusgalli): A (Fresh weight inhibition rate≥80% to 100%)
- Control efficacy grade, Leptochloa chinensis (Leptochloa chinensis): A (Fresh weight inhibition rate≥80% to 100%)
- Control efficacy grade, Eclipta prostrata (Eclipta prostrata): A (Fresh weight inhibition rate≥80% to 100%)

Structure (SMILES): Cc1nnc(NC(=O)c2ccc(S(C)(=O)=O)c(SC(C)(C)C)c2Cl)o1 [Compound 3-32]
- Control efficacy grade, Cyperus iria (Cyperus iria): A (Fresh weight inhibition rate≥80% to 100%)
- Control efficacy grade, Digitaria sanguinalis (Digitaria sanguinalis): B (Fresh weight inhibition rate≥260% to <80%)
- Control efficacy grade, Echinochloa crusgalli (Echinochloa crusgalli): A (Fresh weight inhibition rate≥80% to 100%)
- Control efficacy grade, Leptochloa chinensis (Leptochloa chinensis): A (Fresh weight inhibition rate≥80% to 100%)

Structure (SMILES): Cc1nnc(NC(=O)c2ccc(S(C)(=O)=O)c([S+]([O-])CCCl)c2Cl)o1 (racemic) [Compound 3-213]
- Control efficacy grade, Cyperus iria (Cyperus iria): A (Fresh weight inhibition rate≥80% to 100%)
- Control efficacy grade, Digitaria sanguinalis (Digitaria sanguinalis): A (Fresh weight inhibition rate≥80% to 100%)
- Control efficacy grade, Echinochloa crusgalli (Echinochloa crusgalli): A (Fresh weight inhibition rate≥80% to 100%)
- Control efficacy grade, Leptochloa chinensis (Leptochloa chinensis): A (Fresh weight inhibition rate≥80% to 100%)

Structure (SMILES): C=CCSc1c(S(C)(=O)=O)ccc(C(=O)Nc2nnc(CC)o2)c1Cl [Compound 3-454]
- Control efficacy grade, Cyperus iria (Cyperus iria): A (Fresh weight inhibition rate≥80% to 100%)
- Control efficacy grade, Digitaria sanguinalis (Digitaria sanguinalis): A (Fresh weight inhibition rate≥80% to 100%)
- Control efficacy grade, Echinochloa crusgalli (Echinochloa crusgalli): A (Fresh weight inhibition rate≥80% to 100%)
- Control efficacy grade, Leptochloa chinensis (Leptochloa chinensis): A (Fresh weight inhibition rate≥80% to 100%)

Structure (SMILES): Cc1nonc1NC(=O)c1ccc(S(C)(=O)=O)c(S(=O)(=O)C(C)C)c1Cl [Compound 4-10]
- Control efficacy grade, Cyperus iria (Cyperus iria): A (Fresh weight inhibition rate≥80% to 100%)
- Control efficacy grade, Digitaria sanguinalis (Digitaria sanguinalis): B (Fresh weight inhibition rate≥260% to <80%)
- Control efficacy grade, Echinochloa crusgalli (Echinochloa crusgalli): A (Fresh weight inhibition rate≥80% to 100%)
- Control efficacy grade, Leptochloa chinensis (Leptochloa chinensis): A (Fresh weight inhibition rate≥80% to 100%)
